Laboratory results published in patent US20220073536A1 (Rigel Pharmaceuticals, Inc., priority 2003, published 2022).
Structures can show the parent of a compound that is named as a salt. Where two headings read alike, the source gives them in different places.

Tested on: cultured human mast cells (CHMC)
Test: CHMC low cell density IgE activation: tryptase assay
Type: cell-based
Details: low cell density CHMC, IgE activation, tryptase release
How it was run: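 CHMC were seeded at 1000–1500 cells/well in MT buffer and incubated 1 hr at 37 °C. They were then stimulated with anti-IgE for 30 min at 37 °C, with unstimulated wells as controls. Released tryptase in the supernatant was measured with a fluorogenic substrate after 30 min at room temperature.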

[1] = Homo sapiens, Mast cell, 8 pt, read-out: LD Tryptase, CHMC, IgE, 8 pt
[2] = 3 pt, read-out: LD Tryptase, CHMC, IgE, 3 pt
[3] = 8 pt, read-out: LD Tryptase, CHMC, IgE, 8 pt

Structure (SMILES)	IC50 [1] [µM]	IC50 [2] [µM]	IC50 [3] [µM]
NCCCn1ncc2cc(Nc3ncc(F)c(Nc4ccc(Cl)c(Cl)c4)n3)ccc21 [Compound 824, N2-[1-(3-Aminopropyl)indazol-5-yl]-N4-(3,4-dichlorophenyl)-5-fluoro-2,4-pyrimidinediamine]	< 10		
CC1(C)Oc2ccc(Nc3nc(Nc4ccc5c(cnn5CCCN)c4)ncc3F)cc2NC1=O [Compound 825, N2-[1-(3-Aminopropyl)indazol-5-yl]-N4-(2,2-dimethyl-3-oxo-4H-benz[1,4]oxazin-6-yl)-5-fluoro-2,4-pyrimidinediamine]	< 10		
C[C@@H]1Oc2ccc(Nc3nc(Nc4ccc5c(cnn5CCCN)c4)ncc3F)cc2NC1=O [Compound 826, (S)-N2-[1-(3-Aminopropyl)indazol-5-yl]-5-fluoro-N4-(2-methyl-3-oxo-2H,4H-benz[1,4]oxazin-6-yl)-2,4-pyrimidinediamine]	< 10		
COc1ccc(Nc2nc(Nc3ccc4c(cnn4CCCO)c3)ncc2F)cc1Cl [Compound 828, N4-(3-Chloro-4-methoxyphenyl)-5-fluoro-N2-[1-(3-hydroxypropyl)indazol-5-yl]-2,4-pyrimidinediamine Bis p-Toluenesulfonic Acid Salt]	< 10		
Cn1nc(N)c2cc(Nc3ncc(F)c(Nc4ccc5c(n4)NC(=O)C(C)(C)O5)n3)ccc21 [Compound 837, N2-(3-Amino-1-methylindazol-5-yl)-N4-(2,2-dimethyl-3-oxo-4H-5-pyrid[1,4]oxazin-6-yl)-5-fluoro-2,4-pyrimidinediamine]		< 10	< 10
CC1(C)Oc2ccc(Nc3nc(Nc4ccc5c(cnn5CCCO)c4)ncc3F)nc2NC1=O [Compound 838, N4-(2,2-Dimethyl-3-oxo-4H-5-pyrid[1,4]oxazin-6-yl)-5-fluoro-N2-[1-(3-hydroxypropyl)indazol-5-yl]-2,4-pyrimidinediamine]		< 10	< 10
COCCCn1ncc2ccc(Nc3ncc(F)c(Nc4ccc5c(n4)NC(=O)C(C)(C)O5)n3)cc21 [Compound 839, N4-(2,2-Dimethyl-3-oxo-4H-5-pyrid[1,4]oxazin-6-yl)-5-fluoro-N2-[1-(3-methoxypropyl)indazol-6-yl]-2,4-pyrimidinediamine]		< 10	< 10
COc1ccc(Nc2nc(Nc3ccc4c(cnn4CCCNS(=O)(=O)C(F)(F)F)c3)ncc2F)cc1Cl [Compound 840, N4-(3-Chloro-4-methoxyphenyl)-5-fluoro-N2-[1-[3-(N-trifluoromethylsulfonylamino)propyl]indazol-5-yl]-2,4-pyrimidinediamine]	< 10		
O=S(=O)(NCCCn1ncc2cc(Nc3ncc(F)c(Nc4ccc(Cl)c(Cl)c4)n3)ccc21)C(F)(F)F [Compound 841, N4-(3,4-Dichlorophenyl)-5-fluoro-N2-[1-[3-(N-trifluoromethylsulfonylamino)propyl]indazol-5-yl]-2,4-pyrimidinediamine]	< 10		
CC1(C)Oc2ccc(Nc3nc(Nc4ccc5c(cnn5CCCNS(=O)(=O)C(F)(F)F)c4)ncc3F)cc2NC1=O [Compound 842, N4-(2,2-Dimethyl-3-oxo-4H-benz[1,4]oxazin-6-yl)-5-fluoro-N2-[1-[3-(N-trifluoromethylsulfonylamino)propyl]indazol-5-yl]-2,4-pyrimidinediamine]	< 10		
C[C@@H]1Oc2ccc(Nc3nc(Nc4ccc5c(cnn5CCCNS(=O)(=O)C(F)(F)F)c4)ncc3F)cc2NC1=O [Compound 843, (S)-5-Fluoro-N4-(2-methyl-3-oxo-2H,4H-benz[1,4]oxazin-6-yl)-N2-[1-[3-(N-trifluoromethylsulfonylamino)propyl]indazol-5-yl]-2,4-pyrimidinediamine]	< 10		
CC1(C)Oc2ccc(Nc3nc(Nc4ccc5c(cnn5CCCNS(=O)(=O)C(F)(F)F)c4)ncc3F)nc2NC1=O [Compound 844, N4-(2,2-Dimethyl-3-oxo-4H-5-pyrid[1,4]oxazin-6-yl)-5-fluoro-N2-[1-[3-(N-trifluoromethylsulfonylamino)propyl]indazol-5-yl]-2,4-pyrimidinediamine]			> 10
